System: lipid membranes on porous silica beads packed in microcolumn
Assay: Microfluidic study: release of dye from a bead packed microcolumn after TRITON X-100 injection
Type: biochemical
Settings: 10 μL of 10% TRITON X-100 injected, 5 min no flow
Description: To create a packed microcolumn of lipid coated beads containing fluorescein, 2 μL of silica bead (diameter=20 μm) containing suspension (0.05 mg/μL) was injected into a microfluidic channel by applying vacuum at the outlet port of the microchannel, followed by the injection of 10 μL of fluorescein-entrapped bead (diameter=10 μm) containing suspension (0.05 mg/μL). The bead packed microchannel was mounted onto a vertical translational stage located in the sample holder space of the fluorimeter. Just below the bead segment, the microchannel was irradiated with an Argon ion laser (λ=488 nm, 8-10 mW) excitation. The inlet of the column was connected to a buffer reservoir while the outlet was connected to a vacuum source. As the fluorescence intensity at 520 nm was monitored, several microliters of Tris buffer was passed through the microchannel before the injection of TRITON X-100 detergent. […]
The packed segment was about 2 mm long. The disruption of the membranes on porous silica beads (containing fluorescein dye) by TRITON X-100 detergent was detected by monitoring the release of the dye from the beads, at a point just below the bead segment as indicated in FIG. 7B. […] The microcolumn was irradiated at 488 nm and fluorescence intensity was monitored at 520 nm. […]

TRITON X-100
initial signal (1st peak) less than that observed in suspension studies: ~80%

Reference: patent US8465983B1, “Detection and delivery systems utilizing supported lipid bilayers” (priority 2005, dated 2013)
